Results taken from patent US6124269A, “2-Halo-6-O-substituted ketolide derivatives” (priority 1998, dated 2000).
≈ marks a conversion by molar mass, not a printed value. Where “and” joins values, the source holds several entries; their conditions need not be identical. Identical values can stand only once.

Experiments:
Assay type in all cases: cell-based
[1] = test system: Nocardia asteroides ATCC 9970; test: In vitro agar dilution MIC, organism code VV; conditions: Table 1B, in µg/mL (unit assumed)
Protocol: (§1) Representative compounds of the present invention were assayed in vitro for antibacterial activity as follows: Twelve petri dishes containing successive aqueous dilutions of the test compound mixed with 10 mL of sterilized Brain Heart Infusion (BHI) agar (Difco 0418-01-5) were prepared. Each plate was inoculated with 1:100 (or 1:10 for slow-growing strains, such as Micrococcus and Streptococcus) dilutions of up to 32 different microorganisms, using a Steers replicator block. The inoculated plates were incubated at 35-37° C. for 20 to 24 hours. In addition, a control plate, using BHI agar containing no test compound, was prepared and incubated at the beginning and end of each test.
An additional plate containing a compound having known susceptibility patterns for the organisms being tested and belonging to the same antibiotic class as the test compound was also prepared and incubated as a further control, as well as to provide test-to-test comparability. Erythromycin A was used for this purpose.
(§2) After incubation, each plate was visually inspected. The minimum inhibitory concentration (MIC) was defined as the lowest concentration of drug yielding no growth, a slight haze, or sparsely isolated colonies on the inoculum spot as compared to the growth control.

[2] = test system: Streptococcus agalactiae CMX 508; test: In vitro agar dilution MIC, organism code KK; conditions: Table 1B, unit assumed
Protocol: as §1
(§3) An additional plate containing a compound having known susceptibility patterns for the organisms being tested and belonging to the same antibiotic class as the test compound was also prepared and incubated as a further control, as well as to provide test-to-test comparability.
as §2

[3] = test system: Escherichia coli SS; test: In vitro agar dilution MIC, organism code RR; conditions: Table 1B, in µg/mL (unit assumed)
Protocol: as §1, §3, §2

[4] = test system: Micrococcus luteus ATCC 9341; test: In vitro agar dilution MIC, organism code OO; conditions: Table 1B, unit assumed
Protocol: as §1, §3, §2

[5] = test system: Staphylococcus aureus A-5278; test: In vitro agar dilution MIC, organism code CC; conditions: unit assumed
Protocol: as §1, §3, §2

[6] = test system: Streptococcus pneumoniae ATCC 6303; test: In vitro agar dilution MIC, organism code XX; conditions: unit assumed
Protocol: as §1, §3, §2

[7] = test system: Streptococcus pneumoniae GYR 1171; test: In vitro agar dilution MIC, organism code YY; conditions: Table 1B, unit assumed
Protocol: as §1, §3, §2

[8] = test system: Mycobacterium smegmatis ATCC 114; test: In vitro agar dilution MIC, organism code UU; conditions: Table 1B, in µg/mL (unit assumed)
Protocol: as §1, §3, §2

[9] = test system: Staphylococcus aureus 1775; test: In vitro agar dilution MIC, organism code GG; conditions: Table 1B, unit assumed
Protocol: as §1, §3, §2

[10] = test system: Micrococcus luteus ATCC 4698; test: In vitro agar dilution MIC, organism code PP; conditions: Table 1B, in µg/mL (unit assumed)
Protocol: as §1, §3, §2

[11] = test system: Streptococcus bovis A-5169; test: In vitro agar dilution MIC, organism code JJ; conditions: Table 1B, unit assumed
Protocol: as §1, §3, §2

[12] = test system: Haemophilis influenzae DILL AMP R; test: In vitro agar dilution MIC, organism code WW; conditions: unit assumed
Protocol: as §1, §3, §2

[13] = test system: Staphylococcus epidermidis 3519; test: In vitro agar dilution MIC, organism code HH; conditions: Table 1B, in µg/mL (unit assumed)
Protocol: as §1, §3, §2

[14] = test system: Candida albicans CCH 442; test: In vitro agar dilution MIC, organism code TT; conditions: Table 1B, unit assumed
Protocol: as §1, §3, §2

[15] = test system: Staphylococcus aureus CMX 642A; test: In vitro agar dilution MIC, organism code DD; conditions: Table 1B, unit assumed
Protocol: as §1, §3, §2

[16] = test system: Escherichia coli DC-2; test: In vitro agar dilution MIC, organism code SS; conditions: Table 1B, unit assumed
Protocol: as §1, §3, §2

[17] = test system: Staphylococcus aureus ATCC 6538P; test: In vitro agar dilution MIC, organism code AA; conditions: unit assumed
Protocol: as §1, §3, §2

[18] = test system: Staphylococcus aureus CMX 553; test: In vitro agar dilution MIC, organism code FF; conditions: Table 1B, unit assumed
Protocol: as §1, §3, §2

[19] = test system: Streptococcus pyogenes 930; test: In vitro agar dilution MIC, organism code MM; conditions: unit assumed
Protocol: as §1, §3, §2

[20] = test system: Staphylococcus aureus A5177; test: In vitro agar dilution MIC, organism code BB; conditions: in µg/mL (unit assumed)
Protocol: as §1, §3, §2

[21] = test system: Escherichia coli JUHL; test: In vitro agar dilution MIC, organism code QQ; conditions: Table 1B, in µg/mL (unit assumed)
Protocol: as §1, §3, §2

[22] = test system: Streptococcus pneumoniae 5649; test: In vitro agar dilution MIC, organism code ZZA; conditions: unit assumed
Protocol: as §1, §3, §2

[23] = test system: Staphylococcus aureus NCTC10649M; test: In vitro agar dilution MIC, organism code EE; conditions: Table 1B, unit assumed
Protocol: as §1, §3, §2

[24] = test system: Enterococcus faecium ATCC 8043; test: In vitro agar dilution MIC, organism code II; conditions: Table 1B, unit assumed
Protocol: as §1, §3, §2

[25] = test system: Streptococcus pyogenes EES61; test: In vitro agar dilution MIC, organism code LL; conditions: unit assumed
Protocol: as §1, §3, §2

[26] = test system: Streptococcus pyogenes PIU 2548; test: In vitro agar dilution MIC, organism code NN; conditions: unit assumed
Protocol: as §1, §3, §2

| Compound | MIC [1] | MIC [2] [µg/mL] | MIC [3] | MIC [4] [µg/mL] | MIC ([5]; Table 1B) [µg/mL] | MIC ([6]; Table 1B) [µg/mL] | MIC [7] [µg/mL] | MIC [8] | MIC [9] [µg/mL] | MIC [10] | MIC [11] [µg/mL] | MIC ([12]; Table 1B) [µg/mL] | MIC [13] | MIC [14] [µg/mL] | MIC [15] [µg/mL] | MIC [16] [µg/mL] | MIC ([17]; Table 1B) [µg/mL] | MIC [18] [µg/mL] | MIC ([19]; Table 1B) [µg/mL] | MIC ([20]; Table 1B) | further results |
| --- | --- | --- | --- | --- | --- | --- | --- | --- | --- | --- | --- | --- | --- | --- | --- | --- | --- | --- | --- | --- | --- |
| CC[C@H]1OC(=O)[C@H](C)[C@@H](O[C@H]2C[C@@](C)(OC)[C@@H](O)[C@H](C)O2)[C@H](C)[C@@H](O[C@@H]2O[C@H](C)C[C@H](N(C)C)[C@H]2O)[C@](C)(O)C[C@@H](C)C(=O)[C@H](C)[C@@H](O)[C@]1(C)O [Ery. A, Erythromycin A, reference compound] | 0.1 and 0.05 | 0.05 (≈ 0.0681 µM) | 0.78 and 0.39 | 0.02 (≈ 0.0273 µM) | > 100 | 0.06 (≈ 0.0818 µM) | 0.06 (≈ 0.0818 µM) | 3.1 and 6.2 | > 100 | 0.2 and 0.39 | 0.02 (≈ 0.0273 µM) | 4 (≈ 5.45 µM) | 0.39 and 0.2 | > 100 | 0.39 (≈ 0.531 µM) | > 100 | 0.2 (≈ 0.273 µM) | 0.39 (≈ 0.531 µM) | > 100 | 3.1 and 6.2 | MIC [21]: > 100 and 50; MIC ([22]; Table 1B): 16 µg/mL (≈ 21.8 µM); MIC [23]: 0.39 µg/mL (≈ 0.531 µM); MIC [24]: 0.05 µg/mL (≈ 0.0681 µM); MIC ([25]; Table 1B): 0.02 µg/mL (≈ 0.0273 µM) |
| CC[C@H]1OC(=O)C(C)(F)C(=O)[C@H](C)[C@@H](O[C@@H]2O[C@H](C)C[C@H](N(C)C)[C@H]2O)[C@](C)(OC)C[C@@H](C)C2=NCCN3C(=O)O[C@@]1(C)[C@H]3[C@H]2C (stereo partly drawn) [Example 1] | 0.05 | 0.02 (≈ 0.0305 µM) | 0.2 | 0.02 (≈ 0.0305 µM) | > 100 | 0.03 (≈ 0.0457 µM) | 0.03 (≈ 0.0457 µM) | 0.2 | > 100 | 0.2 | 0.01 (≈ 0.0152 µM) | 2 (≈ 3.05 µM) | 0.2 | > 100 | 0.1 (≈ 0.152 µM) | 25 (≈ 38.1 µM) | 0.1 (≈ 0.152 µM) | 0.1 (≈ 0.152 µM) | > 100 | 0.1 | MIC ([26]; Table 1B): 0.2 µg/mL (≈ 0.305 µM); MIC ([26]; Table 1C): 0.5 µg/mL (≈ 0.762 µM); MIC ([5]; Table 1C): > 100 µg/mL; MIC ([6]; Table 1C): 0.03 µg/mL (≈ 0.0457 µM); MIC ([12]; Table 1C): 2 µg/mL (≈ 3.05 µM); MIC ([17]; Table 1C): 0.1 µg/mL (≈ 0.152 µM); MIC ([19]; Table 1C): > 128 µg/mL; MIC ([20]; Table 1C): 0.1; MIC [21]: > 50; MIC ([22]; Table 1B): 0.5 µg/mL (≈ 0.762 µM); MIC ([22]; Table 1C): 0.5 µg/mL (≈ 0.762 µM); MIC [23]: 0.2 µg/mL (≈ 0.305 µM); MIC [24]: 0.05 µg/mL (≈ 0.0762 µM); MIC ([25]; Table 1B): 0.01 µg/mL (≈ 0.0152 µM); MIC ([25]; Table 1C): 0.03 µg/mL (≈ 0.0457 µM) |
